Assay results as given in patent US8129366B2, “VLA-4 inhibitory drug” (Daiichi Sankyo Company, Limited, priority 2005, dated 2012).
Converted amounts (≈) assume the structure as drawn. Like-named read-outs stand apart in the source and are kept apart here.

Legend:
hα4 and β1 integrins = molecular target: T1, hα4 and β1 integrins (Homo sapiens, UniProt P05556+P13612); test: In vitro inhibition of binding between CHO cells expressing hα4 and β1 integrins and Eu3+-hVCAM-1 D1D7-IgG; conditions: for Ki: CHO cells expressing hα4 and β1 integrins, Eu3+-hVCAM-1 D1D7-IgG ligand, without HSA; for IC50: in the presence of 3% human serum albumin (HSA final concentration 3%)
T1 construct: expressed in transfected cells; host or cells: CHO cells
Method in brief: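 Transfected CHO cells, cultured 2 days, were incubated with compound and Eu³⁺-hVCAM-1 D1D7-IgG (diluted to 2 nM) for 1 h at room temperature. Buffer was 25 mM HEPES pH 7.5 with 1 mM Ca²⁺, 1 mM Mg²⁺, 4 mM Mn²⁺ and 0.1% BSA, ±3% HSA final. Cells were washed at 4 °C and read by DELFIA time-resolved fluorescence; Ki was derived from IC50 using the Scatchard Kd.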

[1] = Test for pharmacokinetics and oral absorbability in monkeys; type: in vivo; conditions: orally 0.5 mg/kg, single agent; for AUC (ng · h/ml): total area under the plasma concentration versus time curve: LC/MS/MS
Description: The pharmacokinetic parameters in the case of orally administering (0.5 mg/kg, single agent) the substance under test to monkeys, were as follows.

[2] = Solubility test in first and second liquid of the Japanese Pharmacopoeia
Description: (§1) The solubilities of the substance under test in the first liquid (JP1, pH=1.2) of the Japanese Pharmacopoeia and the second liquid (JP2, pH=6.8) of the Japanese Pharmacopoeia, were evaluated.

[3] = for Solubility, First liquid of Japanese Pharmacopoeia: pH 1.2; for Solubility, Second liquid of Japanese Pharmacopoeia: pH 6.8
Description: as §1

[4] = test system: eosinophile infiltration in mice actively sensitized with ascaris; test: Test for eosinophile infiltration in mice actively sensitized with ascaris, administered two times a day; type: in vivo; conditions: orally 5 mg/kg two times a day; for inhibition in vivo at 5 mg/kg: Mus musculus, po, eosinophile count in BALF 48 hours after sensitization vs ascaris-sensitized group, read-out: suppression rate (%); for Average total eosinophile count (×10^5) of (ascaris-sensitized + substance under test) group: BALF 48 hours after sensitization
Description: Test for eosinophile infiltration in mice actively sensitized with ascaris (antigen to pig roundworm):
It has been reported that infiltration of eosinophilic cells is induced by active sensitization with ascaris {Int. Arch. Immuno., 108, 11-18 (1995)}. An evaluation of the compounds under test was performed according to the evaluation method described herein. The substance under test was orally administered in an amount of 5 mg/kg, two times a day. The total cell count and the eosinophile count in BALF of 48 hours after sensitization were calculated, and the effects were determined by comparing with the group not administered with the substance under test.

[5] = first liquid of the Japanese Pharmacopoeia (JP1), pH 1.2, simulated gastric fluid, First liquid of Japanese Pharmacopoeia (μg/mL), JP1, pH=1.2
[6] = second liquid of the Japanese Pharmacopoeia (JP2), pH 6.8, aqueous buffer, Second liquid of Japanese Pharmacopoeia (μg/mL), JP2, pH=6.8

T1 sequence (P13612 34-1032): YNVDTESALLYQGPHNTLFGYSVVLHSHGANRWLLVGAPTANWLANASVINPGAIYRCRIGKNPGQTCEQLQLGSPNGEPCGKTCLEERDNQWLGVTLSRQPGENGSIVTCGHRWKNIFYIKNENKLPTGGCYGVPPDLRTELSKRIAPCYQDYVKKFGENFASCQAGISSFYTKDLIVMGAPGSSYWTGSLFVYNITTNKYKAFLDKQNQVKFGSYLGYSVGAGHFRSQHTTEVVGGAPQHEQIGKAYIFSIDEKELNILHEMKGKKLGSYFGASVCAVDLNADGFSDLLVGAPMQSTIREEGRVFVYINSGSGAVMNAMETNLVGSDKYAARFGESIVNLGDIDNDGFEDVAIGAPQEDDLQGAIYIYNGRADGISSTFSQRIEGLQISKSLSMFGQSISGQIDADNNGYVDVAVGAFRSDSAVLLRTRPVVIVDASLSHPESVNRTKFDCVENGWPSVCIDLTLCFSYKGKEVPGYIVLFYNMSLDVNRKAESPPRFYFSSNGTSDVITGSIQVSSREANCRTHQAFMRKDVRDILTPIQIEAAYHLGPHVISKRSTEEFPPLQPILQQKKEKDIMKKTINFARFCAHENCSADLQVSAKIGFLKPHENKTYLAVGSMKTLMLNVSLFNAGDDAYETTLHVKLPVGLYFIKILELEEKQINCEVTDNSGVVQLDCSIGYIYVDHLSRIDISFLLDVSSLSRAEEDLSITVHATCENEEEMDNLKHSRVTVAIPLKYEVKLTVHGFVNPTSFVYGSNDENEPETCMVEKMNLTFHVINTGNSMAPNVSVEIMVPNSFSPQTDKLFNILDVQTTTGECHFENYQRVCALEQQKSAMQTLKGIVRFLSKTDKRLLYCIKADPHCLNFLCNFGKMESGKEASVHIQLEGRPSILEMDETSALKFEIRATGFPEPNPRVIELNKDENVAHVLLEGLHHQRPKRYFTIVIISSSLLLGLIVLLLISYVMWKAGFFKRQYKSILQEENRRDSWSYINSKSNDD
T1 sequence (P05556 21-798): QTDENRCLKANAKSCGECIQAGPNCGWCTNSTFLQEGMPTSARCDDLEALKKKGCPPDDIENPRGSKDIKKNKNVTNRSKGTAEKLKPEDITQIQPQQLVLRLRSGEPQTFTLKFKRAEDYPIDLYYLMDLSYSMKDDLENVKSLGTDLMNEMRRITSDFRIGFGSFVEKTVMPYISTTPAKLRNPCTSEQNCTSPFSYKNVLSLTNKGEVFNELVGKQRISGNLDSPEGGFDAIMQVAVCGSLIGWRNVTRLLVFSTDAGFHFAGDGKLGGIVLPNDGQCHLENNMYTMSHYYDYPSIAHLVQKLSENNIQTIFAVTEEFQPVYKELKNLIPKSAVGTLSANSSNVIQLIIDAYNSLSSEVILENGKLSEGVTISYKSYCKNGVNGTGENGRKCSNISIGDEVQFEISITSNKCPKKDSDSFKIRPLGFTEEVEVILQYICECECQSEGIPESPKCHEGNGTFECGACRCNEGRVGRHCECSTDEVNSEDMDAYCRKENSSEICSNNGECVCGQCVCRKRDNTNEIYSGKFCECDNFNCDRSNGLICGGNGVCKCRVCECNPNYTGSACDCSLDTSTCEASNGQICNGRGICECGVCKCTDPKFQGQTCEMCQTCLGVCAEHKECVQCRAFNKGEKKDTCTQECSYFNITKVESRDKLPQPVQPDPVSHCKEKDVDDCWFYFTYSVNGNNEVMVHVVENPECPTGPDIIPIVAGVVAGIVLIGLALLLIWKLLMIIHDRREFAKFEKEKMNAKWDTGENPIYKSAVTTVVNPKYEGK

| SMILES | Ki (hα4 and β1 integrins) | IC50 (hα4 and β1 integrins) | Cltot (mL/min/kg): apparent plasma clearance [1] | AUC (ng · h/ml): total area under the plasma concentration versus time curve [1] | Solubility, First liquid of Japanese Pharmacopoeia [3] | Solubility, Second liquid of Japanese Pharmacopoeia [3] | solubility [2, 5] | solubility [2, 6] | Solubility, First liquid of Japanese Pharmacopoeia ([2]; JP1, pH=1.2) | Solubility, Second liquid of Japanese Pharmacopoeia ([2]; JP2, pH=6.8) | inhibition in vivo at 5 mg/kg [4] | Average total eosinophile count (×10^5) of (ascaris-sensitized + substance under test) group [4] |
| --- | --- | --- | --- | --- | --- | --- | --- | --- | --- | --- | --- | --- |
| COC1CN([C@H]2C[C@@H](CO[C@H]3CC[C@H](C(=O)O)CC3)N(C(=O)Cc3cc(Cl)c(NC(=O)c4cn(C)c5ccccc45)cc3Cl)C2)C1 (relative stereo) [Example 2, Trans-4-[1-[[2,5-dichloro-4-[(1-methyl-1H-indol-3-ylcarbonyl)amino]phenyl]acetyl]-(4S)-(3-methoxyazetidin-1-yl)-(2S)-pyrrolidinylmethoxy]cyclohexanecarboxylic acid] | 2.2 nM | 17 nM | 0.40 mL/min/kg | 22185 ng·h/mL | – | – | – | – | >2000 µg/mL | >2000 µg/mL | – | – |
| COC1CN([C@H]2C[C@@H](CO[C@H]3CC[C@H](C(=O)O)CC3)N(C(=O)Cc3cc(Cl)c(NC(=O)c4csc5ccccc45)cc3Cl)C2)C1 (relative stereo) [Example 4, Trans-4-[1-[[4-[(benzo[b]thiophen-3-ylcarbonyl)amino]-2,5-dichlorophenyl]acetyl]-(4S)-(3-methoxyazetidin-1-yl)-(2S)-pyrrolidinylmethoxy]cyclohexanecarboxylic acid] | 0.8 nM | 19 nM | – | – | >2000 µg/mL | >2000 µg/mL | – | – | – | – | – | – |
| COC1CN([C@H]2C[C@@H](CO[C@H]3CC[C@H](C(=O)O)CC3)N(C(=O)Cc3cc(Cl)c(NC(=O)c4coc5ccccc45)cc3F)C2)C1 (relative stereo) [Example 5, Trans-4-[1-[[4-[(benzo[b]furan-3-ylcarbonyl)amino]-5-chloro-2-fluorophenyl]acetyl]-(4S)-(3-methoxyazetidin-1-yl)-(2S)-pyrrolidinylmethoxy]cyclohexanecarboxylic acid] | 1.4 nM | 12 nM | – | – | 1970 µg/mL | >2000 µg/mL | – | – | – | – | – | – |
| CO[C@H]1CN([C@H]2C[C@@H](CO[C@H]3CC[C@H](C(=O)O)CC3)N(C(=O)Cc3ccc(NC(=O)c4coc5ccccc45)c(Cl)c3)C2)C[C@H]1OC (relative stereo) [Example 61, Trans-4-[1-[[4-[(benzo[b]furan-3-ylcarbonyl)amino]-3-chlorophenyl]acetyl]-(4S)-(cis-3,4-dimethoxypyrrolidin-1-yl)-(2S)-pyrrolidinylmethoxy]cyclohexanecarboxylic acid] | 1.6 nM | 5.5 nM | – | – | 1100 µg/mL | 1300 µg/mL | – | – | – | – | – | – |
| CC1CN([C@H]2C[C@@H](CO[C@H]3CC[C@H](C(=O)O)CC3)N(C(=O)Cc3cc(Cl)c(NC(=O)c4cn(C)c5ccccc45)cc3Cl)C2)C1 [Example 10, Trans-4-[1-[[2,5-dichloro-4-[(1-methyl-1H-indol-3-ylcarbonyl)amino]phenyl]acetyl]-(4S)-(3-methylazetidin-1-yl)-(2S)-pyrrolidinylmethoxy]cyclohexanecarboxylic acid] | 9.5 nM | 37 nM | 0.80 mL/min/kg | 10799 ng·h/mL | – | – | > 2000 µg/mL | > 2000 µg/mL | – | – | 44% | 1.73 ×10^5 |
| O=C(Nc1cc(F)c(CC(=O)N2C[C@@H](N3CCCCC3)C[C@H]2CO[C@H]2CC[C@H](C(=O)O)CC2)cc1Cl)c1csc2ccccc12 [Example 94, Trans-4-[1-[[4-[(benzo[b]thiophen-3-ylcarbonyl)amino]-5-chloro-2-fluorophenyl]acetyl]-(4S)-(piperidin-1-yl)-(2S)-pyrrolidinylmethoxy]cyclohexanecarboxylic acid] | 0.93 nM | 2.9 nM | – | – | – | – | – | – | – | – | 59% | 1.24 ×10^5 |
| Cn1cc(C(=O)Nc2cc(F)c(CC(=O)N3C[C@@H](N4CCN(CC(F)(F)F)CC4)C[C@H]3CO[C@H]3CC[C@H](C(=O)O)CC3)cc2Cl)c2ccccc21 [Example 124, Trans-4-[1-[[5-chloro-2-fluoro-4-[(1-methyl-1H-indol-3-ylcarbonyl)amino]phenyl]acetyl]-(4S)-[4-(2,2,2-trifluoroethyl)piperazin-1-yl]-(2S)-pyrrolidinylmethoxy]cyclohexanecarboxylic acid] | 4.9 nM | 17 nM | – | – | – | – | – | – | – | – | 63% | 1.72 ×10^5 |

More lines, in order of falling Ki (hα4 and β1 integrins), values ahead:

| Ki (hα4 and β1 integrins) | IC50 (hα4 and β1 integrins) | Cltot (mL/min/kg): apparent plasma clearance [1] | AUC (ng · h/ml): total area under the plasma concentration versus time curve [1] | Solubility, First liquid of Japanese Pharmacopoeia [3] | Solubility, Second liquid of Japanese Pharmacopoeia [3] | solubility [2, 5] | solubility [2, 6] | SMILES | Solubility, First liquid of Japanese Pharmacopoeia ([2]; JP1, pH=1.2) | Solubility, Second liquid of Japanese Pharmacopoeia ([2]; JP2, pH=6.8) | inhibition in vivo at 5 mg/kg [4] | Average total eosinophile count (×10^5) of (ascaris-sensitized + substance under test) group [4] |
| --- | --- | --- | --- | --- | --- | --- | --- | --- | --- | --- | --- | --- |
| 9.6 nM | 34 nM | – | – | – | – | – | – | O=C(Nc1ccc(CC(=O)N2C[C@@H](N3CCN(CC(F)(F)F)CC3)C[C@H]2CO[C@H]2CC[C@H](C(=O)O)CC2)cc1Cl)c1nccc2ccccc12 [Example 127, Trans-4-[1-[[3-chloro-4-[(isoquinolin-1-ylcarbonyl)amino]phenyl]acetyl]-(4S)-[4-(2,2,2-trifluoroethyl)piperazin-1-yl]-(2S)-pyrrolidinylmethoxy]cyclohexanecarboxylic acid] | – | – | 63% | 1.40 ×10^5 |
| 6.5 nM | 20 nM | – | – | – | – | – | – | C[C@@H]1CN([C@H]2C[C@@H](CO[C@H]3CC[C@H](C(=O)O)CC3)N(C(=O)Cc3cc(Cl)c(NC(=O)c4cn(C)c5ccccc45)cc3Cl)C2)C[C@H](C)O1 [Example 80, Trans-4-[1-[[2,5-dichloro-4-[(1-methyl-1H-indol-3-ylcarbonyl)amino]phenyl]acetyl]-(4S)-(cis-2,6-dimethylmorpholin-4-yl)-(2S)-pyrrolidinylmethoxy]cyclohexanecarboxylic acid] | – | – | 51% | 1.86 ×10^5 |
| 5.2 nM | 42 nM | 0.56 mL/min/kg | 15064 ng·h/mL | – | – | – | – | C[C@@H]1CN([C@H]2C[C@@H](CO[C@H]3CC[C@H](C(=O)O)CC3)N(C(=O)Cc3cc(Cl)c(NC(=O)c4coc5ccccc45)cc3Cl)C2)C[C@H](C)O1 [Example 83, Trans-4-[1-[[4-[(benzo[b]furan-3-ylcarbonyl)amino]-2,5-dichlorophenyl]acetyl]-(4S)-(cis-2,6-dimethylmorpholin-4-yl)-(2S)-pyrrolidinylmethoxy]cyclohexanecarboxylic acid] | – | – | – | – |
| 3.9 nM | 13 nM | – | – | – | – | 1000 µg/mL (≈ 1430 µM) | 1000 µg/mL (≈ 1430 µM) | Cn1cc(C(=O)Nc2cc(F)c(CC(=O)N3C[C@@H](N4CCN(CCF)CC4)C[C@H]3CO[C@H]3CC[C@H](C(=O)O)CC3)cc2Cl)c2ccccc21 [Example 118, Trans-4-[1-[[5-chloro-2-fluoro-4-[(1-methyl-1H-indol-3-ylcarbonyl)amino]phenyl]acetyl]-(4S)-[4-(2-fluoroethyl)piperazin-1-yl]-(2S)-pyrrolidinylmethoxy]cyclohexanecarboxylic acid] | – | – | 67% | 1.41 ×10^5 |
| 2.8 nM | 15 nM | – | – | – | – | – | – | Cn1cc(C(=O)Nc2cc(F)c(CC(=O)N3C[C@@H](N4C[C@H]5COC[C@H]5C4)C[C@H]3CO[C@H]3CC[C@H](C(=O)O)CC3)cc2Cl)c2ccccc21 [Example 72] | – | – | 70% | 1.41 ×10^5 |
| 2.5 nM | 13 nM | 1.2 mL/min/kg | 7329 ng·h/mL | – | – | – | – | Cn1cc(C(=O)Nc2cc(Cl)c(CC(=O)N3C[C@@H](N4CCN(C5CC5)CC4)C[C@H]3CO[C@H]3CC[C@H](C(=O)O)CC3)cc2Cl)c2ccccc21 [Example 139, Trans-4-[1-[[2,5-dichloro-4-[(1-methyl-1H-indol-3-ylcarbonyl)amino]phenyl]acetyl]-(4S)-(4-cyclopropylpiperazin-1-yl)-(2S)-pyrrolidinylmethoxy]cyclohexanecarboxylic acid] | – | – | – | – |
| 0.97 nM | 11 nM | 0.26 mL/min/kg | 32510 ng·h/mL | – | – | – | – | COC1CN([C@H]2C[C@@H](CO[C@H]3CC[C@H](C(=O)O)CC3)N(C(=O)Cc3cc(Cl)c(NC(=O)c4csc5ccccc45)cc3F)C2)C1 (relative stereo) [Example 3, Trans-4-[1-[[4-[(benzo[b]thiophen-3-ylcarbonyl)amino]-5-chloro-2-fluorophenyl]acetyl]-(4S)-(3-methoxyazetidin-1-yl)-(2S)-pyrrolidinylmethoxy]cyclohexanecarboxylic acid] | 1848 µg/mL | 1989 µg/mL | – | – |
